Laboratory results: ChEMBL document CHEMBL5550206, “Identification of 6-Fluorine-Substituted Coumarin Analogues as POLRMT Inhibitors with High Potency and Safety for Treatment of Pancreatic Cancer” (J Med Chem, 2024)
Calls of active or inactive are those of the source. No cut-off for these calls is given here.

How the values were obtained:
MIA PaCa-2 [1] = experiment: Reduction in number of mitochondria in human MIA PaCa-2 cells measured after 96 hrs by Mito-Tracker Green and DAPI staining based assay; format: functional, cell-based; conditions: dose 10-1000 nM
[2] = Toxicity in BALB/c mouse xenografted with human MIA PaCa-2 cells assessed as pathological change in heart at 25 to 100 mg/kg, iv once daily for 25 consecutive day after 2 weeks of cells injection by H and E staining based optical microscopic analysis; format: organism-based; conditions: in vivo, 336 h, dose 25-100 mg/kg
MIA PaCa-2 [3] = experiment: Inhibition of colony formation in human MIA PaCa-2 cells assessed as decrease in size of colony at 5 nM incubated for 14 days by crystal violet staining based assay; format: functional, cell-based; conditions: time 14.0 day
MIA PaCa-2 [4] = experiment: Effect on SDHB protein complexes in human MIA PaCa-2 cells reduction in NDUFB8 protein level at 0.01 to 10 uM by Western blot analysis; format: functional, cell-based; conditions: dose 0.01-10 µM
MIA PaCa-2 [5] = experiment: Reduction in basal oxygen consumption rate (OCR) in human MIA PaCa-2 cells incubated for 168 hrs; format: functional, cell-based; conditions: dose 1-200 nM
[6] = target: DNA-directed RNA polymerase, mitochondrial (Homo sapiens) (UniProt O00411); experiment: Inhibition of human POLRMT in human MIA PaCa-2 cells assessed as inhibition of mitochondria coded ubiquinone oxidoreductase core subunit 1 (ND I) transcript level measured after 12 hrs by RT-qPCR analysis; conditions: dose 0.001-5 µM
PANC-1 = experiment: Antiproliferative activity against human PANC-1 cells assessed as cell viability measured after 168 hrs incubation by SRB assay; format: functional, cell-based; conditions: PANC-1, 168 h
MIA PaCa-2 [7] = experiment: Induction of cell arrest in human MIA PaCa-2 cells assessed as accumulation of cells at G2 phase at 100 nM measured after 96 hrs by PI staining based flow cytometry (reference value: 11.2%); format: functional
MIA PaCa-2 [8] = experiment: Inhibition of RNA pol I in human MIA PaCa-2 cells assessed as effect on 18S RNA level at 0.1 to 1 uM measured after 12 hrs by RT-qPCR analysis; format: cell-based; conditions: dose 0.1-1 µM
MIA PaCa-2 [9] = experiment: Induction of cell arrest in human MIA PaCa-2 cells assessed as accumulation of cells at S phase at 200 nM measured after 96 hrs by PI staining based flow cytometry (reference value: 16.8%); format: functional
MIA PaCa-2 [10] = experiment: Induction of cell arrest in human MIA PaCa-2 cells assessed as viable cells at 200 nM measured after 4 days by Annexin V-FITC and propidium iodide (PI) staining based assay (reference value: 94.9%); format: functional; conditions: MIA PaCa-2, 96 h, time 4 day, read-out: Activity
MIA PaCa-2 [11] = experiment: Induction of cell arrest in human MIA PaCa-2 cells assessed as necrotic cells at 200 nM measured after 4 days by Annexin V-FITC and propidium iodide (PI) staining based assay (reference value: 0.82%); format: functional; conditions: time 4 day
MIA PaCa-2 [12] = experiment: Reduction in spare oxygen consumption rate (OCR) in human MIA PaCa-2 cells incubated for 168 hrs; format: functional, cell-based; conditions: dose 1-200 nM
MIA PaCa-2 [13] = experiment: Induction of cell arrest in human MIA PaCa-2 cells assessed as accumulation of cells at S phase at 100 nM measured after 96 hrs by PI staining based flow cytometry (reference value: 16.8%); format: functional

Chain of DNA-directed RNA polymerase, mitochondrial (Homo sapiens) (O00411 whole entry): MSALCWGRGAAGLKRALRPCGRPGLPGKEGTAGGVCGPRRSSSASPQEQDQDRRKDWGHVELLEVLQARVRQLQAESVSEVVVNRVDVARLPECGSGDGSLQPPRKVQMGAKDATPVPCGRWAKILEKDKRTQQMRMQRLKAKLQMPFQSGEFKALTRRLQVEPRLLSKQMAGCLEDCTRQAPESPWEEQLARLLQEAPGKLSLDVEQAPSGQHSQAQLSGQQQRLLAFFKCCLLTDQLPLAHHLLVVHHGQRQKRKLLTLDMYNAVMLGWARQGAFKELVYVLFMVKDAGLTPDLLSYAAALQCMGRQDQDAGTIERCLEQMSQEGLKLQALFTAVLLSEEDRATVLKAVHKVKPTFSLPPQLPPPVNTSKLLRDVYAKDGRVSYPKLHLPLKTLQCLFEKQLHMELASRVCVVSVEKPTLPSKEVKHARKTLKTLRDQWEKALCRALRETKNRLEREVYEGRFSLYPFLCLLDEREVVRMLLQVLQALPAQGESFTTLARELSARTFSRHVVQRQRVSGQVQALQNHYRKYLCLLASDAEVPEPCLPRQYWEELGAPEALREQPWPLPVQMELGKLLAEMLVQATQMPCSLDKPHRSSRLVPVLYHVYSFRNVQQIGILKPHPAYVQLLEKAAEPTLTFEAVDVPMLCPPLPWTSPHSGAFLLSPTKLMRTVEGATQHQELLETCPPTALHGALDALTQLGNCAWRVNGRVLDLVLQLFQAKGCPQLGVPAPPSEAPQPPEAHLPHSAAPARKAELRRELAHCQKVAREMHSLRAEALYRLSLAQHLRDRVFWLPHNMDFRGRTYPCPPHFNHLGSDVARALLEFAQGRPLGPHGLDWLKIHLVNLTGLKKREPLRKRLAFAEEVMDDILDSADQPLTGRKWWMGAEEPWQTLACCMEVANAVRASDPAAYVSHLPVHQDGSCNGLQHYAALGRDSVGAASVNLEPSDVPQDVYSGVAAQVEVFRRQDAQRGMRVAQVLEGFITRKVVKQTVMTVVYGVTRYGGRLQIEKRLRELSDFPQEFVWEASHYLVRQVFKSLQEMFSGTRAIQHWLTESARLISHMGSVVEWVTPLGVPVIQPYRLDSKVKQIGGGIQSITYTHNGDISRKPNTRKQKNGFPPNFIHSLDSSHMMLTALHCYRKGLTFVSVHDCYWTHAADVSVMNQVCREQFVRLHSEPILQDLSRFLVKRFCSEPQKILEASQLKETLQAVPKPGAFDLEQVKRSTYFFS

For CCN(CC)C(=O)[C@@H](C)Oc1cc2oc(=O)cc(-c3ccccc3C)c2cc1F, the Activity (MIA PaCa-2 [1]) was “Dose-Dependent Effect”, the Activity [2] was “Non-Toxic” and the inhibition (MIA PaCa-2 [3]) was “Active”. For the same molecule, the Activity (MIA PaCa-2 [4]) was “inactive”, the Activity (MIA PaCa-2 [5]) was “Dose-Dependent Effect” and the inhibition [6] was “Dose-Dependent Effect”. The IC50 (PANC-1) was 198 nM, the Activity (MIA PaCa-2 [7]) was 11.3% and the inhibition (MIA PaCa-2 [8]) was “inactive”. It also gave an Activity (MIA PaCa-2 [9]) of 17%, a viability at 0.2 µM (MIA PaCa-2 [10]) of 94.2% and an Activity (MIA PaCa-2 [11]) of 0.83%. For the same molecule, the Activity (MIA PaCa-2 [12]) was “Dose-Dependent Effect” and the Activity (MIA PaCa-2 [13]) was 16.7%.
